We go through 7 compounds from patent US20190269705A1, “METHODS AND MATERIALS FOR TREATING GRAFT VERSUS HOST DISEASE” (Regents of the University of Minnesota, priority 2017, published 2019).

In one experiment the test system is Th1 cells. Put plainly: CD4 T cells in Th1 skewing conditions, flow cytometry. For orientation: A flow cytometer gives signals particle by particle.
In another experiment the test system is Th17 cells. Put plainly: CD4 T cells in Th17 skewing conditions, flow cytometry.
A further experiment has as its system cGVHD mice. Put plainly: In vivo chronic graft versus host disease (cGVHD) treatment. On the set-up: species or system mouse. As to conditions: treatment Day 28-56 after transplant; for pulmonary function: DON 1.6 mg/kg EOD IP, metformin 150 mg/kg daily IP. Here is the method: Induction of Graft vs Host Disease (cGVHD) was performed as described elsewhere (see, e.g., Panoskaltsis-Mortari et al., 2007 Am J Respir Crit Care Med. 176(7):713-723). Briefly, mice were lethally irradiated the day before bone marrow (BM) transplant. Mice were dosed with cyclophosphamide (Cytoxan, Bristol Myers Squibb, Seattle Wash.) at 120 mg/kg/day on days −3 and −2. Recipient irradiated mice were transplanted via caudal vein with 10×10^6 T-cell depleted allogeneic marrow with 73.5×10^3 purified splenic T cells from WT or GLS KO mice, or control (no CD4+ T cells). Mice were assessed for lung elasticity, resistance, and compliance at Day 28 by whole body plethysmography using the Flexivent system (Scireq, Montreal, PQ, Canada). Histological assessment of GVHD was assessed as described elsewhere (see, e.g., Blazar et al., 1998 Blood 92(10):3949-3959).
6-Diazo-5-Oxo-L-Norleucine (DON) was administered to mice conditioned with cyclophosphamide (Cytoxan, Bristol Myers Squibb, Seattle Wash.) and total body irradiation.
To determine if inhibiting GLS can improve cGVHD, DON (with or without metformin) was administered to mice that were transplanted with WT T cell depleted bone marrow with WT purified splenic T cells beginning on day 28 after transplant.

Another experiment relates to stimulated T cells. Put plainly: Oxygen Consumption Rate (Seahorse) of stimulated CD4 T cells. The format is cell-based, mouse. As to conditions: CD4 cells stimulated on CD3/CD28; 1 μM CB839, 5 μM UK5099 injected separately or in combination. Here is the method:
Experiments were carried out on Agilent Seahorse XF96 bioanalyzer (Agilent). Briefly, wild type CD4+ cells were isolated as previous and activated for 3 days on CD3/CD28 as previously described, or skewed to Th1 and Th17 subsets as described above. T cells were spun onto XF96 Cell-Tak (BD Bioscience, Cat #: 354240) coated plates and rested in Seahorse XF RPMI 1640 media supplemented with glutamine, sodium pyruvate, and glucose. For immediate metabolic response, CB839 and UK5099 were injected separately or in combination, and OCR and ECAR measured.
Experiments were carried out on Agilent Seahorse XF96 bioanalyzer (Agilent). Briefly, wild type CD4+ cells were isolated as previous and activated for 3 days on αCD3/CD28 coated plates as previously described, or skewed to Th1 and Th17 subsets as described above. T cells were isolated and spun onto XF96 Cell-Tak (BD Bioscience, Cat #: 354240) coated plates and rested in Seahorse XF RPMI 1640 media supplemented with glutamine, sodium pyruvate, and glucose. For immediate metabolic response, 1 μM CB839 and 5 μM UK5099 (Cat #: PZ0160-5MG) were injected separately or in combination, and OCR and ECAR measured. For activation response, 1 uM CB839 was injected into IL-7 maintained naïve CD4+ T cells in seahorse medium and allowed to incubate for 20 minutes, followed by soluble αCD3/CD28 injection.

[1] abbreviates: Th1, CB839 + 1.5 mM cell-permeable α-KG analog.
Where [2] appears, read: Th17, CB839 + cell-permeable α-KG analog.

Entries after “also recorded” stand apart in the source; their conditions may differ.

As for `CCOC(=O)CCNc1cc(N2CCc3ccccc3CC2)nc(-c2ccccn2)n1` [GSKJ4], the cytokine production entry is “increased cytokine production” in the experiment on Th1 cells (Th1, day five, JMJD3 inhibitor) and “increased cytokine production in Th1 but not Th17 cells” in the experiment on Th17 cells (Th17, day five, JMJD3 inhibitor).
For the compound `CC(=O)N[C@@H](CS)C(=O)O` [NAC, N-acetyl cysteine], the IFNγ secretion result in the experiment with Th1 cells (Th1, NAC alone) was “decreasing IFNγ secretion”. Moreover, the “production of IFNγ” value in the experiment on Th1 cells (Th1, NAC combined with CB839) is given as “did not, however, increase”. Further, the H3K27 trimethylation result in the experiment on Th1 cells (Th1 cells + NAC) is “no effect”. In addition, the H3K27 trimethylation entry with Th17 cells (GLS-deficient (CB839) Th17 cells + NAC) is given as “restored”. Moreover, in the experiment on Th17 cells (Th17, NAC alone), the “expression of IL17” value is “modestly reduced” and the “expression of RORγt” value is given as “modestly reduced”. Further, in the experiment on Th17 cells (Th17, NAC combined with CB839), the “expression of RORγt” value is listed as “partially restored to control levels” and the “production of IL17” value was “partially restored to control levels”.
Take `[N-]=[N+]=CC(=O)CC[C@H](N)C(=O)O` [DON, 6-Diazo-5-Oxo-L-Norleucine]: in the experiment on cGVHD mice, the “GC B cell frequency” value is given as “decreased GC B cell frequency; also recorded: decrease GC B cell frequencies; also recorded: reduced GC B cells”, the TFH frequency result was “increased TFH frequency”, the TFR frequencies result is on record as “increased TFR frequencies” and the “TFR:TFH ratios” value is reported as “improved TFR:TFH ratios”. Besides, in the experiment on cGVHD mice, the percentage of lymphocytes result is “reduced the percentage of lymphocytes; also recorded: reduces lymphocytes” and the pulmonary function result was “improve pulmonary functions”.
For the compound `N#C/C(=C\c1cn(-c2ccccc2)c2ccccc12)C(=O)O` [UK5099], the “oxygen consumption (T cell respiration)” value in the experiment on stimulated T cells is recorded as “neither UK5099 nor CB839 were sufficient on their own to reduce T cell respiration; also recorded: neither UK5099 nor CB839 were sufficient to reduce T cell respiration alone”.
Consider `CO[C@H]1C[C@@H]2CC[C@@H](C)[C@@](O)(O2)C(=O)C(=O)N2CCCC[C@H]2C(=O)O[C@H]([C@H](C)C[C@@H]2CC[C@@H](O)[C@H](OC)C2)CC(=O)[C@H](C)/C=C(\C)[C@@H](O)[C@@H](OC)C(=O)[C@H](C)C[C@H](C)/C=C/C=C/C=C/1C` [rapamycin], for which the “effect on control Th1 cells” value in the experiment with Th1 cells (rapamycin added on day 3 after activation) is “no effect”.
`CN(C)C(=N)N=C(N)N` [metformin]: in the experiment with cGVHD mice, the pulmonary function result is recorded as “improved pulmonary function”.
For the compound `COC(=O)CCC(=O)C(=O)OC` [DMaKG, dimethyl-2-oxoglutarate], in the experiment with Th1 cells (setting [1]), the “IFNγ production of CB839-treated Th1 cells” value is listed as “rectified” and the “Tbet expression of CB839-treated Th1 cells” value is “rectified”. In addition, the “IFNγ production of CB839-treated Th1 cells” value in the experiment on Th1 cells (Th1, CB839 + 1.5 mM cell-permeable α-KG analog, listed as DM2OG) is on record as “reduced IFNγ production of CB839-treated to control levels”. The “cytokine production in Th1 cells, by itself” value with Th1 cells (Th1, α-KG analog alone) is given as “did not reduce cytokine production”. Besides, in the experiment on Th17 cells (setting [2]), the “IL17 production of CB839-treated Th17 cells” value is “unchanged or further decreased” and the “RORγt of CB839-treated Th17 cells” value is given as “unchanged or further decreased”.
